A short description of series [1]: in vitro. Format: in vitro ADME, mouse. The settings on record: MLM (male CD-1) 0.50 mg/mL, NADPH 1 mM, 1 μM compound, pH 7.4, 37° C., 60 min; for microsomal CLint / half-life: mouse, microsomes; for microsomal CLint: read-out: Intrinsic clearance (Clint); for half-life: read-out: half-life (t1/2). From the text:
MLM Stability Pooled MLM from male CD-1 mice (BIOIVT M00501) were used.

In a further series the target is T1, 5-HT1A receptor (Homo sapiens, UniProt P08908).
T1 construct: expressed in transfected cells; host or cells: CHO cells, stably transfected
T1 sequence (P08908 1-422): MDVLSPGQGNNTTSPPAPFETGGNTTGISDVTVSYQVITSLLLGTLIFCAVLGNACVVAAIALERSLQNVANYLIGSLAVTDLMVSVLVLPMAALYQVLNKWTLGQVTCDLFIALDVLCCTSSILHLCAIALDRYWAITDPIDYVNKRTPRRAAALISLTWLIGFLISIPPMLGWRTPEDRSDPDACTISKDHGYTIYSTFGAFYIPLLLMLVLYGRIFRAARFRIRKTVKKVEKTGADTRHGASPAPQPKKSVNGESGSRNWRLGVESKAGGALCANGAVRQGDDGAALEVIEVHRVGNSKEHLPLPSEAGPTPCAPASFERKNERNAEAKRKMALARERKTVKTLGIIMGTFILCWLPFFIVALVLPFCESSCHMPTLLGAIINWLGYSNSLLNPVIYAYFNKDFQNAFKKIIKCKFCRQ
The series is described as follows: cell-based. The settings on record: agonist, Ca2+ flux; for Emax: CHO, read-out: 5-HT1A % Act @ Max Dose; for EC50: CHO cells with Gα15. Put shortly:
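Receptor agonism was assessed as intracellular calcium mobilization in stably transfected cells, with CHO cells additionally carrying Gα15 for the 5-HT1A readout. Calcium was monitored with Fluo-4 Direct dye.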
(In general: Calcium flux is commonly read through the fluorescence of an indicator in the cells.)

Series [2] concerns the target T2, 5-HT2A receptor (Homo sapiens, UniProt P28223). Kind of series: cell-based. Details: expressed in transfected cells; host or cells: HEK293, stably transfected. The settings on record: Ca2+ flux; for Emax: HEK293, agonist, read-out: 5-HT2A % Act @ Max Dose; for EC50: HEK293. Type of series: cell-based. An outline of the steps:
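Stable HEK293 (5-HT2A, 5-HT2B) or CHO/Gα15 (5-HT1A) cells; Fluo-4 Direct, probenecid 2.5 mM final; 50 min dye load, 37 °C, 5% CO2; agonist-mode Ca2+ flux, FLIPR Tetra.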

Series [3] has as its target T3, 5-HT2C receptor (Homo sapiens, UniProt P28335).
T3 sequence (P28335 33-458): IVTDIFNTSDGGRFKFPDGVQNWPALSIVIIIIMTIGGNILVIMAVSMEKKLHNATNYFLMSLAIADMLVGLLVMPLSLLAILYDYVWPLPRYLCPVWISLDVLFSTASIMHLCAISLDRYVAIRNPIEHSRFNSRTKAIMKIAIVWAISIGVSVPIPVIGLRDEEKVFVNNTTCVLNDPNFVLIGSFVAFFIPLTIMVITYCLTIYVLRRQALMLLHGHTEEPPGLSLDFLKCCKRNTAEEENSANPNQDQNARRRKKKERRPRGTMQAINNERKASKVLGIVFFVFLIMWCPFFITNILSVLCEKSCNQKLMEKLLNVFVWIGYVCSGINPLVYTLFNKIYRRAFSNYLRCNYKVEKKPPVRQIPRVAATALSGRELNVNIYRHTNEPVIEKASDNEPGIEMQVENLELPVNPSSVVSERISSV
The series is described as follows: Ca2+ flux functional assay at 5-HT2C (WuXi 5-HT2C protocol). Format: cell-based. Further details: expressed in transfected cells. How it is done: Disclosed compounds were tested for agonist activity at several serotonin receptor subtypes (5-HT2A, […], 5-HT2C, and 5-HT1A) using Ca^2+ flux functional assays and the 5-HT1B receptor using a cAMP accumulation assay, with the results summarized in Table 4. […] Potent agonist activity was also observed at the other serotonin receptors tested, although the selectivity profile among the receptors varied across compounds. […] However, at the same time, the N-propyl compounds were more efficacious agonists at 5-HT2B than the corresponding N-methyl compounds. The selectivity of disclosed compounds for 5-HT2A over 5-HT2C and 5-HT1A was less predictable and varied widely across compounds. […] An azetidinyl amide substituent tended to increase potency at 5-HT1A relative to 5-HT2A.
Functional Assays at 5-HT2A, 5-HT2B, and 5-HT1A. Agonist activity at 5-HT2A, 5-HT2B, 5HT2C and 5-HT1A receptors was determined using a FLIPR Ca^2+ flux assay at WuXi AppTec (Hong Kong) Limited according to their standard protocols. Briefly, stably transfected cells expressing the receptor of interest and Gα15 in the case of 5-HT1A (HEK293 for 5-HT2A and 5-HT2B; CHO cells for 5-HT1A) were grown and plated in a 384 well plate and incubated at 37° C. and 5% CO2 overnight. A solution of 250 mM probenecid in 1 mL FLIPR assay buffer was prepared fresh. This was combined with a fluorescent dye (Fluo-4 Direct™) to make a final assay concentration of 2.5 mM. Compounds were diluted 1:3.16 for 10 points and 750 nL was added to a 384 well compound plate using ECHO along with 30 μL assay buffer. The fluorescent dye was then added to the assay plate along with assay buffer to a final volume of 40 μL. The cell plate was incubated for 50 min at 37° C. and 5% CO2 and placed into the FLIPR Tetra along with the compound plate. 10 μL of references and compounds were then transferred from the compound plate into the cell plate and the fluorescent signal was read.

A short description of series [4]: in vitro. Type of series: in vitro ADME, human. The settings on record: HLM 0.50 mg/mL, NADPH 1 mM, 1 μM compound, pH 7.4, 37° C., 60 min; for microsomal CLint / half-life: human, microsomes; for microsomal CLint: read-out: Intrinsic clearance (Clint); for half-life: read-out: half-life (t1/2).
For a further series, the target named is T4, 5-HT2B receptor (Homo sapiens, UniProt P41595).
T4 construct: expressed in transfected cells; host or cells: HEK293, stably transfected
T4 sequence (P41595 whole entry): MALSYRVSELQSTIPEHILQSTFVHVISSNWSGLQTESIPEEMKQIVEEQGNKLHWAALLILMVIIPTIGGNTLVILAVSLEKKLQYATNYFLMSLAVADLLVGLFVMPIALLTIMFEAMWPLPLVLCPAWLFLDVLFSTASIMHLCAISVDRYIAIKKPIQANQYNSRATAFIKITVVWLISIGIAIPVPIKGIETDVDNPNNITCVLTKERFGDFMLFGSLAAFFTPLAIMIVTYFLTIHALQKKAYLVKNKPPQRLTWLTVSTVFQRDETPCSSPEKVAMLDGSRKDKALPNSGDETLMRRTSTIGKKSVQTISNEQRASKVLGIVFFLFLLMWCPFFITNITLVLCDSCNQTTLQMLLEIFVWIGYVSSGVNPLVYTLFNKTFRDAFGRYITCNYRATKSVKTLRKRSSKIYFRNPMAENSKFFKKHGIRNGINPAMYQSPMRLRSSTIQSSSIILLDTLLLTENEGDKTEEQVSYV
The series is described as follows: cell-based. Format: cell-based. The settings on record: Ca2+ flux; for Emax: HEK293, agonist, read-out: 5-HT2B % Act @ Max Dose; for EC50: HEK293. Put shortly:
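FLIPR Tetra fluorescence read-out of calcium flux after compound addition. Receptor-expressing stable lines were used (HEK293 for 2A/2B; CHO with Gα15 for 1A), dye-loaded with Fluo-4 Direct and 2.5 mM final probenecid, 50 min at 37 °C.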

A short description of series [5]: in vitro. Type of series: in vitro ADME, rat. The settings on record: RLM (male Sprague-Dawley) 0.50 mg/mL, NADPH 1 mM, 1 μM compound, pH 7.4, 37° C., 60 min; for microsomal CLint / half-life: rat, microsomes; for microsomal CLint: read-out: Intrinsic clearance (Clint); for half-life: read-out: half-life (t1/2). From the text:
RLM Stability Pooled RLM from male Sprague-Dawley rats (Xenotech R1000) were used.

Series [6] concerns the target T2, 5-HT2A receptor. Kind of series: biochemical. Format: binding. Further details: expressed in transfected cells; host or cells: HEK293, stably transfected. The settings on record: [3H]ketanserin 1 nM; HEK293 stable cell line; 1 h, 25 °C. An outline of the steps:
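Test compounds competed with [^3H]ketanserin for receptor binding, and affinity was derived from the radioligand displacement.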

The target of the next series is T5, 5-HT1B receptor (Homo sapiens, UniProt P28222).
T5 construct: expressed in transfected cells
T5 sequence (P28222 whole entry): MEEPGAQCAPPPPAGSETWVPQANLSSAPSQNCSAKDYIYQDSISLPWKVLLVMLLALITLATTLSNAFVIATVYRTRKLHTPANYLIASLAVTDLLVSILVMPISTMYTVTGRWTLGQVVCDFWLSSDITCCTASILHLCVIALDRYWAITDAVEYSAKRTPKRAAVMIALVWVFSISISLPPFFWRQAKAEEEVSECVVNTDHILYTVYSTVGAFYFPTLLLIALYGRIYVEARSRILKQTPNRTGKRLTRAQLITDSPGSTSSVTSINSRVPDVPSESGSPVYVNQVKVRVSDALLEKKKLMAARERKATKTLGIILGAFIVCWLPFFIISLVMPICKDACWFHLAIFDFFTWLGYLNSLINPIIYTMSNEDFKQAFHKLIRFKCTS
Kind of series: cAMP accumulation functional assay at 5-HT1B. Format: cell-based. The settings on record: agonist, cAMP accumulation. Put shortly: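 Stably transfected human 5-HT1B cells were incubated 60 min at room temperature, after which detection reagent was applied for another 60 min at RT. The read-out was cAMP accumulation, used as a measure of agonist activity.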

For series [7], the target named is T3, 5-HT2C receptor. The series is described as follows: cell-based. The settings on record: agonist, Ca2+ flux, Eurofins DiscoverX protocol.

Like-named read-outs stand apart in the source and are kept apart here. Where only a bound is given, the exact number is not on record here.

The term EC50 denotes the concentration that produces a half-maximal response. One may read the Ki as the equilibrium dissociation constant of an inhibitor or competing ligand from its target.

T2 sequence (P28223 whole entry): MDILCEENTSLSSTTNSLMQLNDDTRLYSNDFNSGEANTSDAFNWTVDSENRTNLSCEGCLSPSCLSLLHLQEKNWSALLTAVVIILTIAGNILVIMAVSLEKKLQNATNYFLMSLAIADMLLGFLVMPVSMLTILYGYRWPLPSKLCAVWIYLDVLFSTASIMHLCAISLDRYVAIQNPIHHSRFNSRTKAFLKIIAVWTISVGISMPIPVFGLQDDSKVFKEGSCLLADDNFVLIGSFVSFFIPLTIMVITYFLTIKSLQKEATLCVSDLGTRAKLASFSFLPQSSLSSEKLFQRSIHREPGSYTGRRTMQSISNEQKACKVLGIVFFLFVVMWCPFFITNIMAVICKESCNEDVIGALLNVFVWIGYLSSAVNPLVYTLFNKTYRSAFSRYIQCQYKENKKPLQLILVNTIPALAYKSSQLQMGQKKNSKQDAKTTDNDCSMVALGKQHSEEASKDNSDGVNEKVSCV

For the compound `CCN(CC)C(=O)[C@@H]1C=C2c3cccc4[nH]cc(c34)C[C@H]2N(Cc2ccccc2C)C1` [Compound 99, (6aR,9R)—N,N-diethyl-7-(2-methylbenzyl)-4,6,6a,7,8,9-hexahydroindolo[4,3-fg]quinoline-9-carboxamide], the microsomal CLint came to 426 µL/min/mg in the series “in vitro [1]”, 86.4 µL/min/mg in “in vitro [4]” and 174 µL/min/mg in “in vitro [5]”. The half-life was determined as 3.3 min in “in vitro [1]”, 16 min in the series “in vitro [4]” and 8 min in “in vitro [5]”. In addition, the Emax on 5-HT1A receptor (CHO cells with Gα15, max dose) turned out to be 69.9%; at 5-HT2A receptor [2] (HEK293, max dose), 73.6%; at 5-HT2C receptor [3] (agonist, tested using WuXi 5-HT2C protocol, max dose, read-out: 5-HT2C % Act @ Max Dose (* WuXi protocol)) it was 0.56%; at 5-HT2B receptor (HEK293, max dose) it was 1.41%. In addition, the EC50 on 5-HT1A receptor is 19.6 µM; at 5-HT2A receptor [2] (agonist), 1.21 µM; on 5-HT2C receptor [3] it was over 10 µM; at 5-HT2B receptor (agonist), over 10 µM. The affinity at 5-HT2A receptor [6], expressed as Ki, was 0.00922 µM.

As for `CCN(CC)C(=O)[C@@H]1C=C2c3cccc4[nH]cc(c34)C[C@H]2N(Cc2ccnc(OC)c2)C1` [Compound 79], the “Intrinsic clearance (Clint)” value in “in vitro [1]” stood at 298.4 µL/min/mg; in “in vitro [4]”, 61.2 µL/min/mg; in the series “in vitro [5]” it was 80.5 µL/min/mg. Further, the “half-life (t1/2)” value in the series “in vitro [1]” was determined as 4.6 min; in the series “in vitro [4]”, 22.7 min; in the series “in vitro [5]” it was 17.2 min. Further, the EC50 at 5-HT1A receptor is 8.05 µM; at 5-HT2A receptor [2] (agonist), 2.5 µM; on 5-HT2C receptor [3] (agonist, Ca2+ flux, tested using WuXi 5-HT2C protocol, read-out: 5-HT2C EC50 (* WuXi protocol)), over 10 µM; on 5-HT1B receptor, over 10 µM; on 5-HT2B receptor (agonist), over 10 µM. The “5-HT1A % Act @ Max Dose” value on 5-HT1A receptor (CHO cells with Gα15, max dose) is 77.71%. For the same compound, the “5-HT2A % Act @ Max Dose” value at 5-HT2A receptor [2] (agonist, HEK293, max dose) is recorded as 68.17%. Besides, the “5-HT2C % Act @ Max Dose (* WuXi protocol)” value at 5-HT2C receptor [3] (agonist, tested using WuXi 5-HT2C protocol, max dose) is reported as 0.60* %. For the same compound, the “5-HT1B % Act @ Max Dose” value at 5-HT1B receptor (max dose) amounted to 42.45%. Besides, on 5-HT2B receptor (agonist, HEK293, max dose), the “5-HT2B % Act @ Max Dose” value was 1.38%. Besides, the affinity at 5-HT2A receptor [6] corresponds to a Ki of 0.182 µM.

Consider `CCN(CC)C(=O)[C@@H]1C=C2c3cccc4[nH]cc(c34)C[C@H]2N(Cc2cccc(F)c2)C1` [Compound 52, (6aR,9R)—N,N-diethyl-7-(3-fluorobenzyl)-4,6,6a,7,8,9-hexahydroindolo[4,3-fg]quinoline-9-carboxamide], for which the values for the microsomal CLint in the series “in vitro [1]”, in the series “in vitro [4]” and in “in vitro [5]” were 338 µL/min/mg, 77.9 µL/min/mg and 302 µL/min/mg, respectively. The half-life in “in vitro [1]” was found to be 4.1 min; in “in vitro [4]”, 17.8 min; in the series “in vitro [5]”, 4.6 min. For the same compound, the Emax at 5-HT1A receptor (CHO cells with Gα15, max dose) came to 93%; on 5-HT2C receptor [7] (max dose, read-out: 5-HT2C % Act @ Max Dose), 14.5%; on 5-HT2A receptor [2] (HEK293, max dose), 81.7%; on 5-HT2B receptor (HEK293, max dose), 4.22%. For the same compound, the EC50 at 5-HT1A receptor is 7.99 µM; on 5-HT2C receptor [7] (read-out: 5-HT2C EC50), over 10 µM; on 5-HT2A receptor [2] (agonist) it was 0.469 µM; on 5-HT2B receptor (agonist) it was over 10 µM. The compound further had a Ki on 5-HT2A receptor [6] of 0.00539 µM.

Source of the values: patent US20260317319A1, “NOVEL ERGOLINES AND METHODS OF TREATING MOOD DISORDERS” (Gilgamesh Pharma Inc., priority 2023, published 2026).
